Measured values published in ChEMBL document CHEMBL2413072, “Synthesis and in vitro anticancer studies of novel C-2 arylidene congeners of lantadenes” (2013).

Legend:
Format in all cases: functional
K562 [1] = assay: Growth inhibition of human K562 cells assessed as cell growth at 10 uM by sulforhodamine B assay; conditions: read-out: Activity
T47D = assay: Growth inhibition of human T47D cells assessed as growth inhibition at 10 uM by sulforhodamine B assay; conditions: read-out: GI
Malme-3M [2] = assay: Growth inhibition of human MALME-3M cells assessed as cell growth at 10 uM by sulforhodamine B assay; conditions: read-out: Activity
DU-145 = assay: Growth inhibition of human DU145 cells assessed as cell growth at 10 uM by sulforhodamine B assay; conditions: read-out: Activity
NCI-H226 [3] = assay: Growth inhibition of human NCI-H226 cells assessed as growth inhibition at 10 uM by sulforhodamine B assay; conditions: read-out: GI
SK-MEL-2 = assay: Growth inhibition of human SK-MEL-2 cells assessed as cell growth at 10 uM by sulforhodamine B assay; conditions: read-out: Activity
HOP-92 [4] = assay: Growth inhibition of human HOP92 cells assessed as growth inhibition at 10 uM by sulforhodamine B assay; conditions: read-out: GI
A498 = assay: Growth inhibition of human A498 cells assessed as cell growth at 10 uM by sulforhodamine B assay; conditions: read-out: Activity
PC-3 [5] = assay: Growth inhibition of human PC3 cells assessed as cell growth at 10 uM by sulforhodamine B assay; conditions: read-out: Activity
HL-60(TB) = assay: Growth inhibition of human HL-60(TB) cells assessed as cell growth at 10 uM by sulforhodamine B assay; conditions: read-out: Activity
HCT-15 [6] = assay: Growth inhibition of human HCT15 cells assessed as cell growth at 10 uM by sulforhodamine B assay; conditions: read-out: Activity
OVCAR-5 = assay: Growth inhibition of human OVCAR5 cells assessed as cell growth at 10 uM by sulforhodamine B assay; conditions: read-out: Activity
MDA-MB-435 = assay: Growth inhibition of human MDA-MB-435 cells assessed as growth inhibition at 10 uM by sulforhodamine B assay; conditions: read-out: GI
A549 [7] = assay: Growth inhibition of human A549/ATCC cells assessed as cell growth at 10 uM by sulforhodamine B assay; conditions: read-out: Activity
SK-MEL-28 [8] = assay: Growth inhibition of human SK-MEL-28 cells assessed as growth inhibition at 10 uM by sulforhodamine B assay; conditions: read-out: GI
NCI-H322M [9] = assay: Growth inhibition of human NCI-H322M cells assessed as growth inhibition at 10 uM by sulforhodamine B assay; conditions: read-out: GI
LOX IMVI = assay: Growth inhibition of human LOXIMVI cells assessed as growth inhibition at 10 uM by sulforhodamine B assay; conditions: read-out: GI
M14 [10] = assay: Growth inhibition of human M14 cells assessed as growth inhibition at 10 uM by sulforhodamine B assay; conditions: read-out: GI
U-251 [11] = assay: Growth inhibition of human U251 cells assessed as cell growth at 10 uM by sulforhodamine B assay; conditions: read-out: Activity
[12] = Growth inhibition of human HCC2998 cells assessed as growth inhibition at 10 uM by sulforhodamine B assay; conditions: HCC 2998, read-out: GI
UACC-62 = assay: Growth inhibition of human UACC62 cells assessed as cell growth at 10 uM by sulforhodamine B assay; conditions: read-out: Activity
HCT-15 [13] = assay: Growth inhibition of human HCT15 cells assessed as growth inhibition at 10 uM by sulforhodamine B assay; conditions: read-out: GI
RPMI-8226 [14] = assay: Growth inhibition of human RPMI8226 cells assessed as cell growth at 10 uM by sulforhodamine B assay; conditions: read-out: Activity
MOLT-4 [15] = assay: Growth inhibition of human MOLT4 cells assessed as growth inhibition at 10 uM by sulforhodamine B assay; conditions: read-out: GI
MCF7 = assay: Growth inhibition of human MCF7 cells assessed as cell growth at 10 uM by sulforhodamine B assay; conditions: read-out: Activity
M14 [16] = assay: Growth inhibition of human M14 cells assessed as cell growth at 10 uM by sulforhodamine B assay; conditions: read-out: Activity
MOLT-4 [17] = assay: Growth inhibition of human MOLT4 cells assessed as cell growth at 10 uM by sulforhodamine B assay; conditions: read-out: Activity
MDA-MB-468 = assay: Growth inhibition of human MDA-MB-468 cells assessed as growth inhibition at 10 uM by sulforhodamine B assay; conditions: read-out: GI
PC-3 [18] = assay: Growth inhibition of human PC3 cells assessed as growth inhibition at 10 uM by sulforhodamine B assay; conditions: read-out: GI
TK-10 = assay: Growth inhibition of human TK10 cells assessed as growth inhibition at 10 uM by sulforhodamine B assay; conditions: read-out: GI
NCI-H226 [19] = assay: Growth inhibition of human NCI-H226 cells assessed as cell growth at 10 uM by sulforhodamine B assay; conditions: read-out: Activity
RPMI-8226 [20] = assay: Growth inhibition of human RPMI8226 cells assessed as growth inhibition at 10 uM by sulforhodamine B assay; conditions: read-out: GI
Malme-3M [21] = assay: Growth inhibition of human MALME-3M cells assessed as growth inhibition at 10 uM by sulforhodamine B assay; conditions: read-out: GI
OVCAR-4 = assay: Growth inhibition of human OVCAR4 cells assessed as cell growth at 10 uM by sulforhodamine B assay; conditions: read-out: Activity
UACC-257 = assay: Growth inhibition of human UACC257 cells assessed as cell growth at 10 uM by sulforhodamine B assay; conditions: read-out: Activity
[22] = Growth inhibition of human Hs 578T cells assessed as growth inhibition at 10 uM by sulforhodamine B assay; conditions: read-out: GI
CCRF-CEM = assay: Growth inhibition of human CCRF-CEM cells assessed as growth inhibition at 10 uM by sulforhodamine B assay; conditions: read-out: GI
SF-268 = assay: Growth inhibition of human SF268 cells assessed as growth inhibition at 10 uM by sulforhodamine B assay; conditions: read-out: GI
U-251 [23] = assay: Growth inhibition of human U251 cells assessed as growth inhibition at 10 uM by sulforhodamine B assay; conditions: read-out: GI
SK-MEL-28 [24] = assay: Growth inhibition of human SK-MEL-28 cells assessed as cell growth at 10 uM by sulforhodamine B assay; conditions: read-out: Activity
SW-620 = assay: Growth inhibition of human SW620 cells assessed as cell growth at 10 uM by sulforhodamine B assay; conditions: read-out: Activity
RXF 393 = assay: Growth inhibition of human RXF393 cells assessed as growth inhibition at 10 uM by sulforhodamine B assay; conditions: read-out: GI
A549 [25] = assay: Growth inhibition of human A549/ATCC cells assessed as growth inhibition at 10 uM by sulforhodamine B assay; conditions: read-out: GI
NCI-H522 = assay: Growth inhibition of human NCI-H522 cells assessed as growth inhibition at 10 uM by sulforhodamine B assay; conditions: read-out: GI
NCI-H322M [26] = assay: Growth inhibition of human NCI-H322M cells assessed as cell growth at 10 uM by sulforhodamine B assay; conditions: read-out: Activity
HOP-92 [27] = assay: Growth inhibition of human HOP92 cells assessed as cell growth at 10 uM by sulforhodamine B assay; conditions: read-out: Activity
SF-295 = assay: Growth inhibition of human SF295 cells assessed as growth inhibition at 10 uM by sulforhodamine B assay; conditions: read-out: GI
SNB-19 = assay: Growth inhibition of human SNB19 cells assessed as growth inhibition at 10 uM by sulforhodamine B assay; conditions: read-out: GI
K562 [28] = assay: Growth inhibition of human K562 cells assessed as growth inhibition at 10 uM by sulforhodamine B assay; conditions: read-out: GI

Question: With `COc1cc(/C=C2\C[C@]3(C)[C@H]4CC=C5[C@@H]6CC(C)(C)C[C@@H](O)[C@]6(C(=O)O)CC[C@@]5(C)[C@]4(C)CC[C@H]3C(C)(C)C2=O)ccc1O` as the compound, how does the growth at 10 µM (K562 [1]) read?
Answer: Its growth at 10 µM is 71.2%.

Question: And the inhibition of growth at 10 µM (T47D)?
Answer: The inhibition of growth at 10 µM was 18.9%.

Question: What about the growth at 10 µM (Malme-3M [2]) of the same compound?
Answer: The growth at 10 µM was 81.1%.

Question: What about the growth at 10 µM (DU-145) of the same compound?
Answer: The growth at 10 µM was 107%.

Question: And the inhibition of growth at 10 µM (NCI-H226 [3])?
Answer: The inhibition of growth at 10 µM was less than 10%.

Question: What about the growth at 10 µM (SK-MEL-2) of the same compound?
Answer: Its growth at 10 µM is 100%.

Question: And the inhibition of growth at 10 µM (HOP-92 [4])?
Answer: Its inhibition of growth at 10 µM is 29.1%.

Question: And the growth at 10 µM (A498)?
Answer: Its growth at 10 µM is 115%.

Question: And the growth at 10 µM (PC-3 [5])?
Answer: The growth at 10 µM was 72.2%.

Question: What about the growth at 10 µM (HL-60(TB)) of the same compound?
Answer: The growth at 10 µM was 71.1%.

Question: And the growth at 10 µM (HCT-15 [6])?
Answer: The growth at 10 µM was 76.5%.

Question: What about the growth at 10 µM (OVCAR-5) of the same compound?
Answer: The growth at 10 µM was 105%.

Question: And the inhibition of growth at 10 µM (MDA-MB-435)?
Answer: The inhibition of growth at 10 µM was less than 10%.

Question: And the growth at 10 µM (A549 [7])?
Answer: The growth at 10 µM was 71.8%.

Question: And the inhibition of growth at 10 µM (SK-MEL-28 [8])?
Answer: The inhibition of growth at 10 µM was less than 10%.

Question: What about the inhibition of growth at 10 µM (NCI-H322M [9]) of the same compound?
Answer: Its inhibition of growth at 10 µM is less than 10%.

Question: What about the inhibition of growth at 10 µM (LOX IMVI) of the same compound?
Answer: The inhibition of growth at 10 µM was 11.6%.

Question: And the inhibition of growth at 10 µM (M14 [10])?
Answer: Its inhibition of growth at 10 µM is less than 10%.

Question: And the growth at 10 µM (U-251 [11])?
Answer: The growth at 10 µM was 84.7%.

Question: What about the inhibition of growth at 10 µM [12] of the same compound?
Answer: Its inhibition of growth at 10 µM is less than 10%.

Question: And the growth at 10 µM (UACC-62)?
Answer: Its growth at 10 µM is 75%.

Question: And the inhibition of growth at 10 µM (HCT-15 [13])?
Answer: The inhibition of growth at 10 µM was 23.5%.

Question: What about the growth at 10 µM (RPMI-8226 [14]) of the same compound?
Answer: Its growth at 10 µM is 59.5%.

Question: And the inhibition of growth at 10 µM (MOLT-4 [15])?
Answer: The inhibition of growth at 10 µM was 36.7%.

Question: What about the growth at 10 µM (MCF7) of the same compound?
Answer: Its growth at 10 µM is 77.5%.

Question: What about the growth at 10 µM (M14 [16]) of the same compound?
Answer: The growth at 10 µM was 103%.

Question: What about the growth at 10 µM (MOLT-4 [17]) of the same compound?
Answer: Its growth at 10 µM is 63.3%.

Question: What about the inhibition of growth at 10 µM (MDA-MB-468) of the same compound?
Answer: Its inhibition of growth at 10 µM is less than 10%.

Question: What about the inhibition of growth at 10 µM (PC-3 [18]) of the same compound?
Answer: The inhibition of growth at 10 µM was 27.8%.

Question: And the inhibition of growth at 10 µM (TK-10)?
Answer: The inhibition of growth at 10 µM was less than 10%.

Question: And the growth at 10 µM (NCI-H226 [19])?
Answer: Its growth at 10 µM is 100%.

Question: And the inhibition of growth at 10 µM (RPMI-8226 [20])?
Answer: The inhibition of growth at 10 µM was 40.5%.

Question: What about the inhibition of growth at 10 µM (Malme-3M [21]) of the same compound?
Answer: Its inhibition of growth at 10 µM is 18.9%.

Question: What about the growth at 10 µM (OVCAR-4) of the same compound?
Answer: The growth at 10 µM was 83.8%.

Question: What about the growth at 10 µM (UACC-257) of the same compound?
Answer: The growth at 10 µM was 91.4%.

Question: What about the inhibition of growth at 10 µM [22] of the same compound?
Answer: Its inhibition of growth at 10 µM is less than 10%.

Question: And the inhibition of growth at 10 µM (CCRF-CEM)?
Answer: Its inhibition of growth at 10 µM is 18%.

Question: What about the inhibition of growth at 10 µM (SF-268) of the same compound?
Answer: The inhibition of growth at 10 µM was less than 10%.

Question: What about the inhibition of growth at 10 µM (U-251 [23]) of the same compound?
Answer: The inhibition of growth at 10 µM was 15.3%.

Question: And the growth at 10 µM (SK-MEL-28 [24])?
Answer: Its growth at 10 µM is 90.6%.

Question: What about the growth at 10 µM (SW-620) of the same compound?
Answer: The growth at 10 µM was 108%.

Question: What about the inhibition of growth at 10 µM (RXF 393) of the same compound?
Answer: The inhibition of growth at 10 µM was less than 10%.

Question: What about the inhibition of growth at 10 µM (A549 [25]) of the same compound?
Answer: The inhibition of growth at 10 µM was 28.2%.

Question: And the inhibition of growth at 10 µM (NCI-H522)?
Answer: The inhibition of growth at 10 µM was 19.2%.

Question: And the growth at 10 µM (NCI-H322M [26])?
Answer: The growth at 10 µM was 97.5%.

Question: And the growth at 10 µM (HOP-92 [27])?
Answer: Its growth at 10 µM is 70.9%.

Question: What about the inhibition of growth at 10 µM (SF-295) of the same compound?
Answer: Its inhibition of growth at 10 µM is 23.5%.

Question: And the inhibition of growth at 10 µM (SNB-19)?
Answer: The inhibition of growth at 10 µM was less than 10%.

Question: What about the inhibition of growth at 10 µM (K562 [28]) of the same compound?
Answer: The inhibition of growth at 10 µM was 28.8%.
